Assay results as given in ChEMBL document CHEMBL1153143, “Structure-based design, synthesis and biological evaluation of new N-carboxyphenylpyrrole derivatives as HIV fusion inhibitors targeting gp41” (Bioorg Med Chem Lett, 2010).

Test system: not listed separately
Assay: Selectivity index, ratio of CC50 for human MT2 cells to EC50 for HIV1 3B
Type: toxicity, cell-based
Settings: read-out: Ratio CC50/IC50

Row | SMILES | selectivity ratio
1 | Cc1ccc(C)n1-c1ccc(O)c(C(=O)O)c1 | 11.8
2 | Cc1ccc(C)n1-c1ccc(-c2ccc(CCC(=O)O)cc2)c(C(=O)O)c1 | 27.4
3 | Cc1ccc(C)n1-c1ccc(-c2ccccc2)c(C(=O)O)c1 | 16.3
4 | Cc1ccc(C)n1-c1ccc(-c2ccc(C(=O)O)cc2)c(C(=O)O)c1 | 13.8
5 | Cc1ccc(-c2ccc(-n3c(C)ccc3C)cc2C(=O)O)cc1 | 15.4

Test system: Human immunodeficiency virus 1
Assay: Antiviral activity against HIV1 3B in human MT2 cells assessed as reduction of virus-induced cytopathogenicity
Type: functional, organism-based
Settings: Human immunodeficiency virus 1, 3B

Row | SMILES | IC50 [µM]
6 | Cc1ccc(C)n1-c1ccc(O)c(C(=O)O)c1 | 55.5
7 | Cc1ccc(C)n1-c1ccc(-c2ccc(CCC(=O)O)cc2)c(C(=O)O)c1 | 13.1
8 | Cc1ccc(C)n1-c1ccc(-c2ccccc2)c(C(=O)O)c1 | 37.9
9 | Cc1ccc(C)n1-c1ccc(-c2ccc(C(=O)O)cc2)c(C(=O)O)c1 | 33.9
10 | Cc1ccc(C)n1-c1ccc(-c2ccc(/C=C/C(=O)O)cc2)c(C(=O)O)c1 | 7.71
11 | Cc1ccc(-c2ccc(-n3c(C)ccc3C)cc2C(=O)O)cc1 | 79.5

Test system: MT2
Assay: Cytotoxicity against human MT2 cells after 4 days by XTT assay
Type: cell-based
Settings: mt2, 96 h

Row | SMILES | CC50 [µM]
12 | Cc1ccc(C)n1-c1ccc(O)c(C(=O)O)c1 | 334
13 | Cc1ccc(C)n1-c1ccc(-c2ccc(CCC(=O)O)cc2)c(C(=O)O)c1 | 227
14 | Cc1ccc(C)n1-c1ccc(-c2ccccc2)c(C(=O)O)c1 | 290
15 | Cc1ccc(C)n1-c1ccc(-c2ccc(C(=O)O)cc2)c(C(=O)O)c1 | 355
16 | Cc1ccc(C)n1-c1ccc(-c2ccc(/C=C/C(=O)O)cc2)c(C(=O)O)c1 | 255
17 | Cc1ccc(-c2ccc(-n3c(C)ccc3C)cc2C(=O)O)cc1 | 280

Test system: not listed separately
Assay: Inhibition of HIV1 3B gp41 six-helix bundle formation after 30 mins by native-polyacrylamide gel electrophoresis
Design: species or system Human immunodeficiency virus 1
Settings: not given

Row | SMILES | IC50 [µM]
18 | Cc1ccc(C)n1-c1ccc(O)c(C(=O)O)c1 | 29.4
19 | Cc1ccc(C)n1-c1ccc(-c2ccc(CCC(=O)O)cc2)c(C(=O)O)c1 | 21.8
20 | Cc1ccc(C)n1-c1ccc(-c2ccccc2)c(C(=O)O)c1 | 29
21 | Cc1ccc(C)n1-c1ccc(-c2ccc(C(=O)O)cc2)c(C(=O)O)c1 | 20.5
22 | Cc1ccc(C)n1-c1ccc(-c2ccc(/C=C/C(=O)O)cc2)c(C(=O)O)c1 | 20.7
23 | Cc1ccc(-c2ccc(-n3c(C)ccc3C)cc2C(=O)O)cc1 | 21.3

Test system: Human immunodeficiency virus 1
Assay: Antiviral activity against HIV1 3B in human MT2 cells assessed as inhibition of cell-cell fusion
Type: functional, organism-based
Settings: Human immunodeficiency virus 1, 3B

Row | SMILES | IC50 [µM]
24 | Cc1ccc(C)n1-c1ccc(O)c(C(=O)O)c1 | 43.2
25 | Cc1ccc(C)n1-c1ccc(-c2ccc(CCC(=O)O)cc2)c(C(=O)O)c1 | 8.3
26 | Cc1ccc(C)n1-c1ccc(-c2ccccc2)c(C(=O)O)c1 | 59.2
27 | Cc1ccc(C)n1-c1ccc(-c2ccc(C(=O)O)cc2)c(C(=O)O)c1 | 26
28 | Cc1ccc(C)n1-c1ccc(-c2ccc(/C=C/C(=O)O)cc2)c(C(=O)O)c1 | 3.6
29 | Cc1ccc(-c2ccc(-n3c(C)ccc3C)cc2C(=O)O)cc1 | 51.6

Test system: Human immunodeficiency virus 1
Assay: Antiviral activity against HIV1 3B in human MT2 cells assessed as inhibition of p24 antigen level after 4 days by ELISA
Type: functional, organism-based
Settings: Human immunodeficiency virus 1, 3B, MT2, 96 h

Row | SMILES | IC50 [µM]
30 | Cc1ccc(C)n1-c1ccc(O)c(C(=O)O)c1 | 28.2
31 | Cc1ccc(C)n1-c1ccc(-c2ccc(CCC(=O)O)cc2)c(C(=O)O)c1 | 8.3
32 | Cc1ccc(C)n1-c1ccc(-c2ccccc2)c(C(=O)O)c1 | 17.8
33 | Cc1ccc(C)n1-c1ccc(-c2ccc(C(=O)O)cc2)c(C(=O)O)c1 | 25.6
34 | Cc1ccc(C)n1-c1ccc(-c2ccc(/C=C/C(=O)O)cc2)c(C(=O)O)c1 | 4.91
35 | Cc1ccc(-c2ccc(-n3c(C)ccc3C)cc2C(=O)O)cc1 | 18.2
